The assay addresses T1, KCNT1 (KNa1.1, Slack) (Homo sapiens, UniProt Q5JUK3).
T1 construct: expressed in transfected cells; host or cells: HEK-TREX (tetracycline-inducible HEK cell line)
T1 sequence (Q5JUK3 1-1230): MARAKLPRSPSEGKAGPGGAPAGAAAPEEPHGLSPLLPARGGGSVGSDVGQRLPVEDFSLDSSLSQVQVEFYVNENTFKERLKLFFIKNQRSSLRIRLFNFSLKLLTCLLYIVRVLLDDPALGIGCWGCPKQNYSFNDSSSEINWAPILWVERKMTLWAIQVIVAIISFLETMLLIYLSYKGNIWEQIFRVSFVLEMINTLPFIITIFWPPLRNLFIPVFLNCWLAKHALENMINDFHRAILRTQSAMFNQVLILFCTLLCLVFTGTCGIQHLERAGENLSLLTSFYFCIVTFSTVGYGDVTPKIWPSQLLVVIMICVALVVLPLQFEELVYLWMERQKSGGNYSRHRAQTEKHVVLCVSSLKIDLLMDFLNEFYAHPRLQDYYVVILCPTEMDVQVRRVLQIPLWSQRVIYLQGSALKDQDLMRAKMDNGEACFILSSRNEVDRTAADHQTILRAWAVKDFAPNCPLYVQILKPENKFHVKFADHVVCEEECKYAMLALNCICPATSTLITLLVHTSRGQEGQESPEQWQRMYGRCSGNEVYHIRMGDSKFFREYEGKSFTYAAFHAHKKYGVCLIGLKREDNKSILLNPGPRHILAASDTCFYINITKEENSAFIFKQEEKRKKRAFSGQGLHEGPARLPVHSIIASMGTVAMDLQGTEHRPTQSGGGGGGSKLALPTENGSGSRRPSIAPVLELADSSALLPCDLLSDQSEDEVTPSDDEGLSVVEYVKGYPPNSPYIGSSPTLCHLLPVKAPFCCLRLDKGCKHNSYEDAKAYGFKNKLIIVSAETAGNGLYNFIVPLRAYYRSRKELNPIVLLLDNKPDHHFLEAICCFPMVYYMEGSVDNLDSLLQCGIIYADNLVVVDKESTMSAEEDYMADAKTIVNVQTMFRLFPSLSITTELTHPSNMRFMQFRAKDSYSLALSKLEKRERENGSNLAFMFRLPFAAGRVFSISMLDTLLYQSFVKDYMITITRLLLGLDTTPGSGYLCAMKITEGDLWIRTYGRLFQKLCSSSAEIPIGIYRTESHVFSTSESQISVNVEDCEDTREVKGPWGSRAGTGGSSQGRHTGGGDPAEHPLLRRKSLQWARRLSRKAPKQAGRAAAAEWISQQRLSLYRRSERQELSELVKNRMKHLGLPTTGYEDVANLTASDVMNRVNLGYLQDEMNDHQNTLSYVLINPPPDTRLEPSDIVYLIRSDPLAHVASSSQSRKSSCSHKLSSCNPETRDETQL
Description: KCNT1 patch clamp assay (SyncroPatch 384PE, HEK-TREX inducible cell line). Conditions: wild-type KCNT1, HEK-TREX cells, automated perforated patch clamp, step to 0 mV, room temperature; read-out: KCNT1-WT IC50. It is filed as cell-based. The procedure: Inhibition of KCNT1 (KNa1.1, Slack) was evaluated using a tetracycline inducible cell line (HEK-TREX). Currents were recorded using the SyncroPatch 384PE automated, patch clamp system. Pulse generation and data collection were performed with PatchController384 V1.3.0 and DataController384 V1.2.1 (Nanion Technologies). The access resistance and apparent membrane capacitance were estimated using built-in protocols. Current were recorded in perforated patch mode (10 μM escin) from a population of cells. The cells were lifted, triturated, and resuspended at 800,000 cells/ml. The cells were allowed to recover in the cell hotel prior to experimentation. Currents were recorded at room temperature. The external solution contained the following (in mM): NaCl 105, NMDG 40, KCl 4, MgCl2 1, CaCl2) 5 and HEPES 10 (pH=7.4, Osmolarity ˜300 mOsm). The extracellular solution was used as the wash, reference and compound delivery solution. The internal solution contained the following (in mM): NaCl 70, KF 70, KCl 10, EGTA 5, HEPES 5 and Escin 0.01 (pH=7.2, Osmolarity ˜295 mOsm). Escin is made at a 5 mM stock in water, aliquoted, and stored at −20° C. The compound plate was created at 2× concentrated in the extracellular solution. The compound was diluted to 1:2 when added to the recording well. The amount of DMSO in the extracellular solution was held constant at the level used for the highest tested concentration. A holding potential of −80 mV with a 100 ms step to 0 mV was used. Mean current was measured during the step to 0 mV. […] The average mean current from 3 sweeps was calculated and the % inhibition of each compound was calculated. The % Inhibition as a function of the compound concentration was fit with a Hill equation to derive IC50, slope, min and max parameters. If KCNT1 inhibition was less than 50% at the highest tested concentration or if an IC50 could not be calculated, then a percent inhibition was reported in place of the IC50.
In this table, “A” indicates IC50 of less than or equal to 1 μM; “B” indicates inhibition of between 1 μM to 20 μM; and “C” indicates inhibition of greater than or equal to 20 μM.
A general note: In patch-clamp work, channel activity is measured electrically.

This is an account of results in patent US11773088B2, “KCNT1 inhibitors and methods of use” (Praxis Precision Medicines, Inc., priority 2020, dated 2023).

Regarding `CC(C)c1cc(C(=O)N[C@@H](C)c2nc(-c3ccnc(C4CC4)c3)no2)n(C)n1` [Compound 1, (S)—N-(1-(3-(2-cyclopropylpyridin-4-yl)-1,2,4-oxadiazol-5-yl)ethyl)-3-isopropyl-1-methyl-1H-pyrazole-5-carboxamide], the IC50 was at most 1000 nM.

Regarding `CC(C)n1nccc1C(=O)N[C@@H](C)c1nc(-c2ccnc(C3CC3)c2)no1` [Compound 2, (S)—N-(1-(3-(2-cyclopropylpyridin-4-yl)-1,2,4-oxadiazol-5-yl)ethyl)-1-isopropyl-1H-pyrazole-5-carboxamide], the IC50 is at most 1000 nM.

Regarding `C[C@H](NC(=O)c1cc(C2CC2)nn1C)c1nc(-c2ccnc(C3CC3)c2)no1` [Compound 3, (S)-3-cyclopropyl-N-(1-(3-(2-cyclopropylpyridin-4-yl)-1,2,4-oxadiazol-5-yl)ethyl)-1-methyl-1H-pyrazole-5-carboxamide], the IC50 is at most 1000 nM.

For `C[C@H](NC(=O)c1cc(C(C)(C)C)nn1C)c1nc(-c2ccnc(C3CC3)c2)no1` [Compound 4, (S)-3-(tert-butyl)-N-(1-(3-(2-cyclopropylpyridin-4-yl)-1,2,4-oxadiazol-5-yl)ethyl)-1-methyl-1H-pyrazole-5-carboxamide], the IC50 is at most 1000 nM.

Regarding `CCn1nccc1C(=O)N[C@@H](C)c1nc(-c2ccnc(C3CC3)c2)no1` [Compound 5, (S)—N-(1-(3-(2-cyclopropylpyridin-4-yl)-1,2,4-oxadiazol-5-yl)ethyl)-1-ethyl-1H-pyrazole-5-carboxamide], the IC50 is at most 1000 nM.

For the compound `C[C@H](NC(=O)c1ccnn1C(C)(C)C)c1nc(-c2ccnc(C3CC3)c2)no1` [Compound 6, (S)-1-(tert-butyl)-N-(1-(3-(2-cyclopropylpyridin-4-yl)-1,2,4-oxadiazol-5-yl)ethyl)-1H-pyrazole-5-carboxamide], the half-inhibitory concentration (IC50) was at most 1000 nM.

With `C[C@H](NC(=O)c1ccnn1C1CCC1)c1nc(-c2ccnc(C3CCC3)c2)no1` [Compound 7, (S)-1-cyclobutyl-N-(1-(3-(2-cyclobutylpyridin-4-yl)-1,2,4-oxadiazol-5-yl)ethyl)-1H-pyrazole-5-carboxamide], the concentration for half-maximal inhibition (IC50) was in the range of 1000 to 20000 nM.

Regarding `C[C@H](NC(=O)c1cc(C(F)F)nn1C)c1nc(-c2ccnc(C3CCC3)c2)no1` [Compound 8, (S)—N-(1-(3-(2-cyclobutylpyridin-4-yl)-1,2,4-oxadiazol-5-yl)ethyl)-3-(difluoromethyl)-1-methyl-1H-pyrazole-5-carboxamide], the IC50 is at most 1000 nM.

As a reminder, the IC50 is the concentration needed to halve the response being measured.
